Entries after “also recorded” stand apart in the source; their conditions may differ.
Experiments:
visual network = test: Association between human milk HMOs and brain functional network connection strength (rsfMRI), visual network; type: in vivo, typically developing infants (human); conditions: A-tetra+ group; infants 0-20 months; human milk HMO level; quantile regression of 25th, 50th, 75th percentiles of CS; across all quantiles
Description: (§1) In this study, we leveraged the UNC/UMN Baby Connectome Project (BCP) published in Neuroimage 2019: Vol 185: 891-905, aiming to longitudinally characterize early brain development, where typically developing children from 0-5 years of age were enrolled, longitudinal resting functional MR imaging (rsfMRI) was administered at each visit. The BCP study was further supplemented by collecting breast milk samples from the mothers whose children were breast-fed at the time of study visit, to allow the determination of potential associations between HMOs and early brain functional development using rsfMRI.
(§2) 153 rsfMRI scans from 91 typically developing infants (0-20 months old) were obtained. Human milk (HM) samples were obtained from the mothers of the participants at each imaging visit and analyzed for HMOs. Brain functional network connection strengths (CS), which have been implicated to reflect brain functional maturation during early brain development, were obtained for the visual, default mode (DMN), sensorimotor, and auditory networks. Age effects for CS and HMOs were removed. Multivariate quantile regression of 25th, 50th, and 75th percentiles of CS with mixed effect was used to examine associations between HMOs and CS for all infants, and stratified by infants who received HM with detectable and undetectable A-tetra (A-tetra+and A-tetra−). […]

auditory network = test: Association between human milk HMOs and brain functional network connection strength (rsfMRI), auditory network; type: in vivo, typically developing infants (human); conditions: A-tetra+ group; infants 0-20 months; human milk HMO level; quantile regression of 25th, 50th, 75th percentiles of CS; across all quantiles
Description: as §1, §2

CC(=O)N[C@H]1[C@H]([C@H](O)[C@H](O)CO)O[C@@](OC[C@H]2O[C@@H](O[C@H]3[C@H](O)[C@@H](O)[C@H](O)O[C@@H]3CO)[C@H](O)[C@@H](O)[C@H]2O)(C(=O)O)C[C@@H]1O [6′-SL, 6′-sialyllactose]
association between 6′-SL and visual function (vision resting functional networks, connection strength) (visual network): positive associations; also recorded: significant positive association | association between 6′-SL and auditory function (auditory resting functional networks, connection strength) (auditory network): positive associations; also recorded: significant positive association
